From US20250346584A1, “NOVEL KAPPA OPIOID LIGANDS” (The Scripps Research Institute, priority 2012, published 2025) come the findings set out here.

Bounds are passed on as bounds.

The target of the first experiment is kappa opioid receptor (OPRK1) (Homo sapiens (Human), UniProt P41145). Briefly: OPRK1 antagonist assay (b-arrestin-2-TEV / b-lactamase reporter cell line, EC80 U-50488 challenge). Type of experiment: cell-based. Particulars: % inhibition at the concentration given.
kappa opioid receptor (OPRK1), sequence (P41145 whole entry): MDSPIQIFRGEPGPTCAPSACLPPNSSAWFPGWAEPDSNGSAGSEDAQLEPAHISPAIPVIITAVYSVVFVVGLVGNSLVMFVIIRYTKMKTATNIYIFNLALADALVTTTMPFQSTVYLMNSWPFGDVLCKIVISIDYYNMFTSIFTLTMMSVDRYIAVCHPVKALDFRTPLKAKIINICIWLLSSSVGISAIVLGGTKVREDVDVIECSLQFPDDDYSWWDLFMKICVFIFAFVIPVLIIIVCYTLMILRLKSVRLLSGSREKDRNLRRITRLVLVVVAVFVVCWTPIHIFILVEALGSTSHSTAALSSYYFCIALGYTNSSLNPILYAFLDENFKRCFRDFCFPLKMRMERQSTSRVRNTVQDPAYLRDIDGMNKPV
On to `COC(=O)c1cc(Br)cnc1N1CCC(NCCO)CC1` [compound 6], for which the “% inhib if other than 50%” value is 80%.

Staying with this experiment, now noted: read-out: IC50 nM (% inhib if other than 50%); antagonist mode vs EC80 U-50488; NA = not active at concentrations up to 10 μM.
Take `Cc1noc(-c2cc3ccccc3nc2N2CCC(NC3CCCCC3O)CC2)n1` (centres unmarked) [compound 230]: the IC50 came out at 9 nM.

In the case of `Cc1ccc2nc(N3CCC(NC[C@H](C)O)CC3)c(-c3nc(C)no3)cc2c1` [compound 422], the IC50 stood at 106 nM.

As for `COC(=O)c1cc(Br)cnc1N1CCC(NC2CCCC2)C(C(=O)OC)C1` (centres unmarked) [compound 117], the concentration for half-maximal inhibition (IC50) amounted to 3800 nM.

On to `Cc1noc(-c2cc3cc(Cl)ccc3nc2N2CCC(NC3CCCCC3)C(CO)C2)n1` (centres unmarked) [compound 239], for which the IC50 came to 16 nM.

For the compound `COC(=O)c1cc(I)cnc1N1CCC(NC2CCCCC2)C(O)C1` (centres unmarked) [compound 42], the IC50 is 18 nM.

Take `COC1CN(c2nc3ccc(F)cc3cc2-c2nc(C)no2)CCC1NC1CCCCC1` (centres unmarked) [compound 242]: the IC50 stood at 26 nM.

For the compound `Cc1nc(-c2cc3ccc(F)c(C)c3nc2N2CCC(NC3CCCCC3)CC2)no1` [compound 503], the IC50 turned out to be 74 nM.

As for `COC(=O)c1cc(Br)cnc1N1CCC(N)C(O)C1` (centres unmarked) [compound 83], the IC50 is 5900 nM.

For `COC(=O)c1cc(Br)cnc1N1CCC(OC2CCCC2O)CC1` (centres unmarked) [C51], the IC50 is more than 20000 nM.

Consider `Cc1cc(-c2nc(C)no2)c(N2CCC(NC3CCOCC3)CC2)nn1` [compound 272], for which the IC50 was 8700 nM.

Consider `COC1CN(c2nc3ccccc3cc2-c2cnc(C)cn2)CCC1NC1CCCCC1` (centres unmarked) [compound 465], for which the IC50 was 18 nM.

On to `Cc1nc(-c2cc3cc(C)c(F)cc3nc2N2CCC(NC3CCCCC3)CC2)no1` [compound 495], for which the IC50 was determined as 13 nM.

Regarding `OCc1cc(Br)cnc1N1CCC(NC2CCCCC2)CC1` [compound 76], the IC50 is 11300 nM.

With `COC1CCCCC1NC1CCN(c2nc3ccccc3cc2-c2nc(C)no2)CC1CO` (centres unmarked) [compound 199], the IC50 came to 59 nM.

In the case of `COC(=O)c1cc(I)cnc1N1CCC(NC2CCCCCC2)C(CO)C1` (centres unmarked) [compound 75], the IC50 stood at 36 nM.

Regarding `COC(=O)c1cc(Br)cnc1N1CCC(NC2C3CC4CC(C3)CC2C4)CC1` (centres unmarked) [compound 11], the IC50 came to 2800 nM.

Turning to `COC(=O)c1cc(Br)cnc1N1CCC(NC2CCCCC2)C(OC)C1` (centres unmarked) [compound 122], the IC50 was 125 nM.

For `Cc1noc(-c2cc3ccccc3nc2N2CC[C@@H](NC3CCCCC3)[C@H](O)C2)n1` [compound 192], the IC50 amounted to 199 nM.

Take `Cc1noc(-c2cc3cc(F)ccc3nc2N2CCC(NC3CCCCC3)C(CO)C2)n1` (centres unmarked) [compound 243]: the IC50 was found to be 22 nM.

For the compound `Cc1ccc2nc(N3CCC(NC[C@@H](C)O)CC3)c(-c3nc(C)no3)cc2c1` [compound 421], the IC50 was determined as 48 nM.

Regarding `CO[C@H]1CN(c2nc3ccccc3cc2-c2cnc(C)cn2)CC[C@H]1NC1CCCCC1` [compound 470], the IC50 turned out to be 40 nM.

`COC(=O)c1cc(Br)cnc1N1CCC(NC2CCCCCC2)C(C(=O)OC)C1` (centres unmarked) [compound 118]: the IC50 amounted to 661 nM.

As for `COC1CN(c2nc3ccc(C)cc3cc2-c2nc(C3CC3)no2)CCC1NCC(C)C` (centres unmarked) [compound 376], the IC50 came to 14 nM.

As for `CO[C@@H]1CN(c2nc3ccc(C)cc3cc2C(C)=O)CC[C@@H]1NC1CCCCC1` [compound 484], the 50% inhibitory concentration (IC50) is 347 nM.

Take `COC(=O)c1cc2ccccc2nc1N1CC[C@@H](NC2CCCCC2)[C@H](O)C1` [compound 160]: the IC50 was found to be 209 nM.

As for `Cc1cnc(N2CCC(NC3CCOCC3)CC2)c(-c2cnc(C)cn2)c1` [compound 473], the half-maximal inhibitory concentration (IC50) was 3210 nM.

`COC(=O)c1cc2ccccc2nc1N1CCC(NC2CCCCC2)C(OC)C1` (centres unmarked) [compound 158]: the IC50 amounted to 431 nM.

On to `COC(=O)c1cc(C)cnc1N1CCC(NC2CCCCC2)CC1` [compound 108], for which the IC50 is 404 nM.

As to `Cc1noc(-c2cc(C(F)(F)F)cnc2N2CCC(NC3CCCCC3)C(CO)C2)n1` (centres unmarked) [compound 187], the IC50 was 341 nM.

Regarding `OCC1CN(c2ncc(Br)cc2-c2nc(C3CC3)no2)CCC1NC1CCCCC1` (centres unmarked) [compound 151], the IC50 was 2100 nM.

Consider `COC(=O)c1cc(Br)cnc1N1CCC(NCCO)CC1` [compound 6], for which the IC50 came to 9200 nM.

The term IC50 denotes the concentration needed to halve the response being measured.
